Among the test systems are NCI-H226 lung; SNB-19 CNS; NCI-H23 lung; SK-MEL-28 melanoma; TK-10 renal; PC-3 prostate; MALME-3M melanoma; HCC-2998 colon; HCT-116 colon; M19-MEL melanoma; DLD-1 colon.
Holding throughout (assay): inhibition of tumour cell growth, NCI panel, 48 h

SMILES strings stand for the structures.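 Five concentrations, 48 hours, 96-well plates. Definition used: TGI = concentration required for complete inhibition of growth.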 Bounds are passed on as bounds.

For the compound `C=C1C(=O)[C@]23C[C@H]1C[C@@H](O)[C@H]2[C@]1(COC3=O)[C@@H](OC(C)=O)CC[C@@](C)(COC(C)=O)[C@H]1C=O`, the TGI in the assay with NCI-H226 lung is 19 µM; with SNB-19 CNS, more than 50 µM; in the assay on NCI-H23 lung, more than 50 µM; in the assay with SK-MEL-28 melanoma, more than 50 µM; in the assay on TK-10 renal, more than 50 µM; with PC-3 prostate, more than 50 µM. For the same compound, the TGI in the assay with MALME-3M melanoma is 27 µM; in the assay with HCC-2998 colon it was more than 50 µM; in the assay with HCT-116 colon it was more than 50 µM.

For the compound `c1ccc(C(c2cccc3c2ccc2ccccc23)C(c2ccccc2)c2cccc3c2ccc2ccccc23)cc1` (stereo unspecified), the TGI in the assay with NCI-H226 lung, in the assay on SNB-19 CNS, in the assay with NCI-H23 lung, with SK-MEL-28 melanoma, with TK-10 renal and in the assay with PC-3 prostate was more than 100 µM in each case. The TGI in the assay on MALME-3M melanoma, in the assay with HCC-2998 colon and in the assay on HCT-116 colon was more than 100 µM in each case.

In the case of `Nc1nc(Nc2ccc(Cl)cc2)sc1C(=O)c1c[nH]c2ccccc12`, the TGI in the assay with NCI-H226 lung was determined as 46.1 µM; in the assay on SNB-19 CNS, 38 µM; with NCI-H23 lung it was 27.8 µM; in the assay on SK-MEL-28 melanoma it was 39.8 µM; in the assay on TK-10 renal, 31.8 µM; in the assay with PC-3 prostate it was 27.9 µM. The figures for the TGI in the assay on MALME-3M melanoma, in the assay on HCC-2998 colon and in the assay on HCT-116 colon were 31.2 µM, 24.1 µM and 23.1 µM, respectively.

On to `COc1cc(OCc2nc3cc(C(F)(F)F)ccc3nc2-c2ccccc2)cc(OC)c1OC`, for which the TGI with NCI-H226 lung, in the assay on SNB-19 CNS, with NCI-H23 lung, with SK-MEL-28 melanoma, with TK-10 renal and with PC-3 prostate was more than 100 µM in each case. In addition, the TGI with MALME-3M melanoma, in the assay with HCC-2998 colon and in the assay on HCT-116 colon was more than 100 µM each time.

For `O=C(/C=C/c1ccc2c(c1)OCO2)NCCc1ccco1`, the TGI in the assay with NCI-H226 lung, in the assay with SNB-19 CNS, with NCI-H23 lung, with SK-MEL-28 melanoma, in the assay with TK-10 renal and with PC-3 prostate was more than 100 µM each time. Also, the TGI with MALME-3M melanoma, in the assay on HCC-2998 colon and in the assay with HCT-116 colon was more than 100 µM throughout.

`COC(=O)[C@@H]1[C@H](O)CCC2=C(CC(=O)c3ccoc3)[C@H](C)CC[C@]21C`: the TGI in the assay on NCI-H226 lung, with SNB-19 CNS, in the assay on NCI-H23 lung, with SK-MEL-28 melanoma, with TK-10 renal and in the assay on PC-3 prostate was more than 50 µM in each case. Further, the TGI in the assay with MALME-3M melanoma, in the assay with HCC-2998 colon and in the assay with HCT-116 colon was more than 50 µM throughout.

Take `CCCCOc1c(C(=O)O)cc(Br)cc1C(=O)O`: the TGI with NCI-H226 lung, with SNB-19 CNS, with NCI-H23 lung, in the assay with SK-MEL-28 melanoma, in the assay on TK-10 renal and in the assay with PC-3 prostate was more than 100 µM throughout. Also, the TGI in the assay with MALME-3M melanoma, with HCC-2998 colon and in the assay with HCT-116 colon was more than 100 µM throughout.

Regarding `CC(=O)NNC(=S)/N=C\c1c(O)c2ccccc2oc1=O`, the TGI in the assay on NCI-H226 lung, in the assay with SNB-19 CNS, with NCI-H23 lung, in the assay on SK-MEL-28 melanoma, in the assay with TK-10 renal and in the assay on PC-3 prostate was more than 100 µM throughout. Also, the TGI in the assay on MALME-3M melanoma, with HCC-2998 colon and in the assay on HCT-116 colon was more than 100 µM throughout.

Turning to `N#CNC(=NCc1ccccc1)NCCc1c[nH]c2ccccc12`, the TGI in the assay with NCI-H226 lung, in the assay on SNB-19 CNS, in the assay with M19-MEL melanoma, in the assay on NCI-H23 lung, in the assay on SK-MEL-28 melanoma and in the assay on TK-10 renal was more than 100 µM each time. Further, the TGI in the assay on DLD-1 colon, in the assay on HCC-2998 colon and with HCT-116 colon was more than 100 µM throughout.

`O=C(/C=C/c1ccc(OCc2ccccc2)cc1)NCc1ccc(C(=O)NCc2ccccc2)cc1`: the TGI in the assay on NCI-H226 lung, with SNB-19 CNS, in the assay on NCI-H23 lung, in the assay with SK-MEL-28 melanoma, in the assay on TK-10 renal and in the assay with PC-3 prostate was more than 100 µM throughout. The TGI in the assay on MALME-3M melanoma, in the assay with HCC-2998 colon and with HCT-116 colon was more than 100 µM throughout.

`COc1ccc(C(=O)c2c(-c3ccccc3NC(=O)C(F)(F)F)[nH]c3ccccc23)cc1`: the TGI is 37.9 µM with NCI-H226 lung; 21.6 µM in the assay on SNB-19 CNS; 25.7 µM with NCI-H23 lung; 27.6 µM in the assay with SK-MEL-28 melanoma; 24.9 µM in the assay on TK-10 renal; 17.3 µM in the assay on PC-3 prostate. Further, the TGI turned out to be 30.5 µM in the assay on MALME-3M melanoma, 9.11 µM in the assay with HCC-2998 colon and 25.5 µM in the assay on HCT-116 colon.

`NC(=S)Nc1ccc2c(c1)oc1ccccc12`: the TGI with NCI-H226 lung, with SNB-19 CNS, in the assay on NCI-H23 lung, in the assay on SK-MEL-28 melanoma, in the assay with TK-10 renal and in the assay on PC-3 prostate was more than 100 µM in each case. The TGI with MALME-3M melanoma, in the assay with HCC-2998 colon and in the assay with HCT-116 colon was more than 100 µM in each case.

For `C/C(=N/NC(=S)Nc1cccc(Cl)c1)c1ccccn1`, the TGI in the assay on NCI-H226 lung was 2.59 µM; with SNB-19 CNS, 16.9 µM; with NCI-H23 lung, 9.97 µM; in the assay with SK-MEL-28 melanoma, 16 µM; with TK-10 renal it was 10.4 µM; in the assay on PC-3 prostate, 15.1 µM. Also, the TGI in the assay on MALME-3M melanoma came to 10 µM; in the assay on HCC-2998 colon it was 17.5 µM; in the assay on HCT-116 colon, 12.2 µM.

Regarding `N=c1n(CC(=O)NC23CC4CC(CC(C4)C2)C3)c2ccccc2n1CC(=O)NC12CC3CC(CC(C3)C1)C2`, the TGI in the assay on SNB-19 CNS was 3.02 µM; with M19-MEL melanoma, 3.09 µM; in the assay with NCI-H23 lung it was 3.13 µM; in the assay with SK-MEL-28 melanoma it was 3.17 µM; with TK-10 renal, 3.08 µM; in the assay on DLD-1 colon, 3.5 µM. In addition, the TGI with MALME-3M melanoma came to 3.04 µM; in the assay with HCC-2998 colon it was 2.65 µM; with HCT-116 colon it was 3.46 µM.
